Experimental data published in patent publication US20240101572A1, “DIHYDROOXADIAZINONE COMPOUND AND PHARMACEUTICAL USE THEREOF” (Japan Tobacco Inc., priority 2022, published 2024).
Where two headings read alike, the source gives them in different places.

Columns and labels:
full-length human PLD1 = full-length human PLD1 (Homo sapiens (Human), UniProt Q13393); assay: Evaluation of human PLD1 enzyme inhibitory activity (Amplex Red / choline oxidase fluorescence); assay type: biochemical
Method in brief: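 N-terminally FLAG-tagged full-length human PLD1 (1-1036), expressed in Expi293F and FLAG-purified, incubated with compound (5% DMSO final) and 1,2-diheptanoyl-sn-glycero-3-phosphocholine for 60 min at room temperature in HEPES pH 7.5 buffer. Released choline detected by Amplex Red/choline oxidase/HRP fluorescence.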

full-length human PLD2 = full-length human PLD2 (Homo sapiens (Human), UniProt O14939); assay: Evaluation of human PLD2 enzyme inhibitory activity (Amplex Red / choline oxidase fluorescence); assay type: biochemical
Method in brief: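 Enzyme was N-terminal FLAG-tagged full-length human PLD2 (1-933), expressed in Expi293F cells and anti-FLAG purified. Compound (5% DMSO final) was incubated with enzyme (6 nmol/L solution) and 1,2-diheptanoyl-PC (6 mmol/L solution) in HEPES pH 7.5, KCl, EGTA, MgCl2, NP-40, BSA buffer for 60 min at room temperature. Choline was detected with Amplex Red/choline oxidase/HRP.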

[1] = full-length human PLD1 enzyme, read-out: PLD1 IC50
[2] = full-length human PLD2 enzyme, read-out: PLD2 IC50

Chain of full-length human PLD1 (Q13393 other isoform, or with tags, fused parts or gaps): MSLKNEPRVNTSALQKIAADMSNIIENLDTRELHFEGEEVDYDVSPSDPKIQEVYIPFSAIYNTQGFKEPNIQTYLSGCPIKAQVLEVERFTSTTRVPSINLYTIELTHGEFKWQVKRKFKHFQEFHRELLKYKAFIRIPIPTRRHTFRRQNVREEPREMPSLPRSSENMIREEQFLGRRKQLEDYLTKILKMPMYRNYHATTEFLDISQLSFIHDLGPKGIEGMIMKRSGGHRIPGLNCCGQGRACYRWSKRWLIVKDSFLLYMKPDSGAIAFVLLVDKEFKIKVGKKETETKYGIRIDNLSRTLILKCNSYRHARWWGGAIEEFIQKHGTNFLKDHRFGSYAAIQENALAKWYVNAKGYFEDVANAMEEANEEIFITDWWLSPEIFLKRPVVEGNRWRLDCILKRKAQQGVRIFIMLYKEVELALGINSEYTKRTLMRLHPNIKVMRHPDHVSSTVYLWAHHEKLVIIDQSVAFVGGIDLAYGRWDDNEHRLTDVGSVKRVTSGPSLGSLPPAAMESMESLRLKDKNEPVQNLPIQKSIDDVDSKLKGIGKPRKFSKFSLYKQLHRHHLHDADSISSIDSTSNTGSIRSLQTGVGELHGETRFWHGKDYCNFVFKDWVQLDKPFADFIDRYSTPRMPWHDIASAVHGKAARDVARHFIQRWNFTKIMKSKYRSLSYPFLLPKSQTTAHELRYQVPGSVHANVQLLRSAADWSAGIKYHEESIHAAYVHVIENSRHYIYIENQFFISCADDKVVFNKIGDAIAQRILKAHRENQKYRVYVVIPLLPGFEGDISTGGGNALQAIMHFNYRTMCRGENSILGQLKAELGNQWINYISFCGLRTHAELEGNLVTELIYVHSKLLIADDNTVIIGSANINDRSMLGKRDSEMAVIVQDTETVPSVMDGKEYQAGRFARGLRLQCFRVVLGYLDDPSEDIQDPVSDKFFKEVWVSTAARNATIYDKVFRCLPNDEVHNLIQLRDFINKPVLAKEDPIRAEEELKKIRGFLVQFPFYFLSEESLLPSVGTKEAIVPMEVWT
Chain of full-length human PLD2 (O14939 whole entry): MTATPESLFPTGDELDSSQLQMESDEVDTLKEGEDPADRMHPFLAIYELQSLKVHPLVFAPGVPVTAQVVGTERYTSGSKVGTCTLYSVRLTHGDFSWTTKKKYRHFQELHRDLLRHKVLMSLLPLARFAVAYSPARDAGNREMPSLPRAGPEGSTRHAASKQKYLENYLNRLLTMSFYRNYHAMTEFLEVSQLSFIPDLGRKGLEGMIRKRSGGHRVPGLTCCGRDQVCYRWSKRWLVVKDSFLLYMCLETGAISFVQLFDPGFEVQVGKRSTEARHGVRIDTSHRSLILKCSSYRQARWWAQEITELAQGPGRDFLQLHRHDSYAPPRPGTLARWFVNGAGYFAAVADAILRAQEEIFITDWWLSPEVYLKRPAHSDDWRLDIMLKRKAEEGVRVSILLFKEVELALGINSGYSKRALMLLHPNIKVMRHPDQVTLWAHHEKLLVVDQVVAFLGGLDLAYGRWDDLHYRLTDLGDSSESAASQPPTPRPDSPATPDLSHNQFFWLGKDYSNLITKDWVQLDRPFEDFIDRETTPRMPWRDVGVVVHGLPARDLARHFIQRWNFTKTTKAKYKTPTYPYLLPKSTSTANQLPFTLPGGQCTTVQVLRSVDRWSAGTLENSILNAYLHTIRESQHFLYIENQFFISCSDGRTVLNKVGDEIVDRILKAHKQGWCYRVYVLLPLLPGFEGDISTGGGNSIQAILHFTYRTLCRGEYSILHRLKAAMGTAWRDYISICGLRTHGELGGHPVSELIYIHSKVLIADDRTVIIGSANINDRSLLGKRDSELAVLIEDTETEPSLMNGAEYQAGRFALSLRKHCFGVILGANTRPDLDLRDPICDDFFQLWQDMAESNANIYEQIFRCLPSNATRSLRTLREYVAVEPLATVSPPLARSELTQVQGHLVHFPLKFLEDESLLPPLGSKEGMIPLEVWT

Row | Structure (SMILES) | IC50 (full-length human PLD1; [1]) | IC50 (full-length human PLD2; [2]) | IC50 (full-length human PLD1; column 1 of continuation tables 2-12 to 2-14, read-out: human PLD1 enzyme inhibitory activity IC50) | IC50 (full-length human PLD2; column 2 of continuation tables 2-12 to 2-14, read-out: human PLD2 enzyme inhibitory activity IC50)
1 | C[C@@H](C[C@H]1CC[C@]2(CC1)OC(=O)NN=C2c1cc(C#N)ccc1Br)NC(=O)NC1CC1 [Example 222, 1-((S)-1-(cis-5-(2-bromo-5-cyanophenyl)-2-oxo-1-oxa-3,4-diazaspiro[5.5]undec-4-en-9-yl)propan-2-yl)-3-cyclopropylurea] | 59 nM | 171 nM |  | 
2 | CNC(=O)C(=O)N[C@@H](C)C[C@H]1CC[C@]2(CC1)OC(=O)NN=C2c1ccc(C(C)(C)O)cc1C [Example 178] | 14 nM | 17 nM |  | 
3 | CNC(=O)C(=O)NC(C)C[C@H]1CC[C@@]2(CC1)OC(=O)NN=C2c1cc(C#N)ccc1Br (mixture of isomers) [Example 2-148] |  |  | 140 nM | 46 nM
4 | CNC(=O)C(=O)N[C@@H](C)C[C@H]1CC[C@]2(CC1)OC(=O)NN=C2c1ccc(S(=O)(=O)C(C)C)cc1Br [Example 66] | 16 nM | < 10 nM |  | 
5 | Cc1cc(C(=O)N[C@@H](C)C[C@H]2CC[C@]3(CC2)OC(=O)NN=C3c2ccc(C(=O)NC3CC3)cc2C)[nH]n1 [Example 204] | 123 nM | 146 nM |  | 
6 | CNC(=O)C(=O)N[C@@H](C)C[C@H]1CC[C@]2(CC1)OC(=O)NN=C2c1ccc(C#N)cc1C [Example 152] | 23 nM | 13 nM |  | 
7 | COc1ccc(C2=NNC(=O)O[C@]23CC[C@@H](C[C@H](C)NC(=O)c2cc(Cl)no2)CC3)c(Br)c1 [Example 59] | < 10 nM | < 10 nM |  | 
8 | Cc1cc(C(=O)NC[C@@H](C)N2CCC3(CC2)OC(=O)NN=C3c2ccc(C#N)cc2Br)[nH]n1 [Example 332] | 2600 nM | 15 nM |  | 
9 | COc1cc(C)c(C2=NNC(=O)O[C@]23CC[C@@H](C[C@H](C)NC(=O)CC#N)CC3)cn1 [Example 263] | 2780 nM | 4500 nM |  | 
10 | CNC(=O)C(=O)N[C@@H](C)C[C@H]1CC[C@]2(CC1)OC(=O)NN=C2c1ccc(F)cc1C1CC1 [Example 64] | 18 nM | < 10 nM |  | 
11 | Cc1cc(Cl)c(C2=NNC(=O)O[C@]23CC[C@@H](C[C@H](C)NC(=O)N2CCn4nccc4C2)CC3)cn1 [Example 276] | 21 nM | < 10 nM |  | 
12 | CNC(=O)C(=O)N[C@@H](C)C[C@H]1CC[C@]2(CC1)OC(=O)NN=C2c1ccc(Br)cc1 [Example 23] | 39 nM | 51 nM |  | 
13 | C[C@@H](C[C@H]1CC[C@]2(CC1)OC(=O)NN=C2c1ccc(C#N)cc1Br)NC(=O)N1CCn2nncc2C1 [Example 271] | 18 nM | < 10 nM |  | 
14 | Cc1cc(C(=O)N[C@@H](C)C[C@H]2CC[C@]3(CC2)OC(=O)NN=C3c2ccc(S(C)(=O)=O)cc2)[nH]n1 [Example 9] | 83 nM | 56 nM |  | 
15 | C[C@@H](C[C@H]1CC[C@]2(CC1)OC(=O)NN=C2c1cccc(OC(F)F)c1Br)NC(=O)c1cnn(C)c1 [Example 309] | 15 nM | < 10 nM |  | 
16 | CNC(=O)C(=O)N[C@@H](C)C[C@H]1CC[C@]2(CC1)OC(=O)NN=C2c1cnc(N2CCC(F)(F)CC2)cc1Cl [Example 274] | 17 nM | < 10 nM |  | 
17 | COc1cc(C)c(C2=NNC(=O)O[C@]23CC[C@@H](C[C@H](C)NC(=O)NCc2ccccc2F)CC3)cn1 [Example 234] | 247 nM | 474 nM |  | 
18 | CNC(=O)C(=O)N[C@H](CN1CCC2(CC1)OC(=O)NN=C2c1cc(C#N)ccc1Br)C(F)(F)F [Example 2-017] | 99 nM | 45 nM |  | 
19 | C[C@@H](CN1CCC2(CC1)OC(=O)NN=C2c1ccc(C#N)cc1Br)NC(=O)C(=O)NC1CC1 [Example 2-064] | 27 nM | 11 nM |  | 
